Reference: US4740233A, “Substituted 1,2,4-triazolo[1,5-a]-pyrimidine-2-sulfonamides and compositions and methods of controlling undesired vegetation and suppressing the nitrification of ammonium nitrogen in soil” (The Dow Chemical Company, priority 1986, dated 1988)

How the values were obtained:
rice [1] = assay: Postemergent control of plant species; assay type: in vivo, Oryza sativa; conditions: Oryza sativa, post-emergence, 336 h, read-out: percent postemergent control
Protocol: (§1) In representative operations, each compound to be utilized in a series of tests is dissolved in acetone to one-half of the final volume (twice the final concentration) to be used and the acetone solution in each case is admixed with an equal volume of water containing 0.1 percent by weight of surface active material. The compositions, generally in the nature of an emulsion, were employed to spray separate respective plant species which had been grown to a 2-4 leaf stage in soil of good nutrient content in a greenhouse. The various beds were positioned side by side and exposed to substantially identical conditions of temperature and light. Each bed was maintained so as to prevent any interaction with test compounds in different seed beds. Other plants were left untreated to serve as controls. After treatment, the plants were maintained for about two weeks under greenhouse conditions conducive for good plant growth and watered as necessary. Control refers to the reduction in growth compared to the observed results of the same untreated species.

yellow nutsedge [2] = assay: Postemergent control of plant species; assay type: in vivo, Cyperus esculentus; conditions: Cyperus, post-emergence, 336 h, read-out: percent postemergent control
Protocol: as §1

rape = assay: Postemergent control of plant species; assay type: in vivo, Brassica napus; conditions: Brassica napus, post-emergence, 336 h, read-out: percent postemergent control
Protocol: as §1

sorghum = assay: Postemergent control of plant species; assay type: in vivo, Sorghum vulgare; conditions: Sorghum, post-emergence, 336 h, read-out: percent postemergent control
Protocol: as §1

wheat = assay: Postemergent control of plant species; assay type: in vivo, Triticum aestivum; conditions: Triticum aestivum, post-emergence, 336 h, read-out: percent postemergent control
Protocol: as §1

annual morning glory = assay: Postemergent control of plant species; assay type: in vivo, Ipomoea spp.; conditions: Ipomoea, post-emergence, 336 h, read-out: percent postemergent control
Protocol: as §1

barnyardgrass [3] = assay: Postemergent control of plant species; assay type: in vivo, Echinochloa crusgalli; conditions: Echinochloa crus-galli, post-emergence, 336 h, read-out: percent postemergent control
Protocol: as §1

cotton = assay: Postemergent control of plant species; assay type: in vivo, Gossypium spp.; conditions: Gossypium hirsutum, post-emergence, 336 h, read-out: percent postemergent control
Protocol: as §1

corn = assay: Postemergent control of plant species; assay type: in vivo, Zea mays; conditions: Zea mays, post-emergence, 336 h, read-out: percent postemergent control
Protocol: as §1

yellow foxtail = assay: Postemergent control of plant species; assay type: in vivo, Setaria lutescens; conditions: Setaria, post-emergence, 336 h, read-out: percent postemergent control
Protocol: as §1

jimsonweed = assay: Postemergent control of plant species; assay type: in vivo, Datura stramonium; conditions: Datura stramonium, post-emergence, 336 h, read-out: percent postemergent control
Protocol: as §1

[4] = system: nitrification of ammonium nitrogen; assay: Suppression of nitrification of ammonium nitrogen in soil; conditions: 27° C.
Procedure, shortened: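 Value is % NH4-N remaining after a two-week, 27° C incubation of treated soil held at 1/3 bar tension moisture. Nitrate was measured with an ion-selective electrode after extraction with ammonium sulfate solution and 10 min shaking.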

velvetleaf = assay: Postemergent control of plant species; assay type: in vivo, Abutilon theophrasti; conditions: Abutilon theophrasti, post-emergence, 336 h, read-out: percent postemergent control
Protocol: as §1

crabgrass = assay: Postemergent control of plant species; assay type: in vivo, Digitaria spp.; conditions: Digitaria sanguinalis, post-emergence, 336 h, read-out: percent postemergent control
Protocol: as §1

soybean = assay: Postemergent control of plant species; assay type: in vivo, Glycine max.; conditions: Glycine max, post-emergence, 336 h, read-out: percent postemergent control
Protocol: as §1

johnson grass = assay: Postemergent control of plant species; assay type: in vivo, Sorghum halepense; conditions: Sorghum halepense, post-emergence, 336 h, read-out: percent postemergent control
Protocol: as §1

sugar beet = assay: Postemergent control of plant species; assay type: in vivo, Beta saccharifera; conditions: Beta vulgaris, post-emergence, 336 h, read-out: percent postemergent control
Protocol: as §1

pigweed = assay: Postemergent control of plant species; assay type: in vivo, Amaranthus spp.; conditions: Amaranthus retroflexus, post-emergence, 336 h, read-out: percent postemergent control
Protocol: as §1

wild oats = assay: Postemergent control of plant species; assay type: in vivo, Avena fatua; conditions: Avena fatua, post-emergence, 336 h, read-out: percent postemergent control
Protocol: as §1

yellow nutsedge [5] = assay: Control of aquatic plant species (paddy water); assay type: in vivo, Cyperus esculentus; conditions: Cyperus, 216 h, nine days, read-out: Percent control
Protocol: (§2) In testing for such utility, the plant species to be tested were transplanted into 16 oz. containers into about 2 inches of soil when they were in the 1-2 inch stage and then flooded to a depth of about 1 inch. An acetone concentrate of the chemical to be tested was then injected into the paddy water, the volume injected being varied as desired to provide the desired concentration. Percent control was evaluated nine days after application.

barnyardgrass [6] = assay: Control of aquatic plant species (paddy water); assay type: in vivo, Echinochloa crusgalli; conditions: Echinochloa crus-galli, 216 h, nine days, read-out: Percent control
Protocol: as §2

sprangletop = assay: Control of aquatic plant species (paddy water); assay type: in vivo, Leptochloa filiformis; conditions: Leptochloa filiformis, 216 h, nine days, read-out: Percent control
Protocol: as §2

rice [7] = assay: Control of aquatic plant species (paddy water); assay type: in vivo, Oryza sativa; conditions: Oryza sativa, 216 h, nine days, read-out: Percent control
Protocol: as §2

| SMILES | plant injury at 500 ppm (rice [1]) [%] | pest or weed control at 500 ppm (yellow nutsedge [2]) [%] | plant injury at 500 ppm (rape) [%] | plant injury at 500 ppm (sorghum) [%] | plant injury at 500 ppm (wheat) [%] | pest or weed control at 500 ppm (annual morning glory) [%] | pest or weed control at 500 ppm (barnyardgrass [3]) [%] | plant injury at 500 ppm (cotton) [%] | plant injury at 500 ppm (corn) [%] | pest or weed control at 500 ppm (yellow foxtail) [%] | pest or weed control at 500 ppm (jimsonweed) [%] | % NH4-N Remaining After 2 Weeks Incubation ([4]; 0.06 ppm) [%] | % NH4-N Remaining After 2 Weeks Incubation ([4]; 0.25 ppm) [%] | % NH4-N Remaining After 2 Weeks Incubation ([4]; 1 ppm) [%] | % NH4-N Remaining After 2 Weeks Incubation ([4]; 4 ppm) [%] | pest or weed control at 500 ppm (velvetleaf) [%] | pest or weed control at 500 ppm (crabgrass) [%] | plant injury at 500 ppm (soybean) [%] | pest or weed control at 500 ppm (johnson grass) [%] | plant injury at 500 ppm (sugar beet) [%] | other results |
| --- | --- | --- | --- | --- | --- | --- | --- | --- | --- | --- | --- | --- | --- | --- | --- | --- | --- | --- | --- | --- | --- |
| Cc1cc(C)n2nc(S(=O)(=O)N(Cc3ccccc3)c3c(Cl)cccc3Cl)nc2n1 [Compound 265] | 0 | 0 | 60 | 0 | 0 | 60 | 0 | 0 | 0 | 0 | 0 | 0 | 0 | 0 | 17 | 0 | 0 | 40 | 0 | 80 | pest or weed control at 500 ppm (pigweed): 70%; pest or weed control at 500 ppm (wild oats): 0% |
| Cc1cc(C)n2nc(S(=O)(=O)Nc3c(F)cccc3Cl)nc2n1 [Compound 54] | – | – | – | – | – | – | – | – | – | – | – | 20 | 51 | 66 | 76 | – | – | – | – | – | pest or weed control at 500 g/ha (yellow nutsedge [5]; 0.5 Kg/Ha): 95%; pest or weed control at 500 g/ha (barnyardgrass [6]; 0.5 Kg/Ha): 97%; pest or weed control at 500 g/ha (sprangletop; 0.5 Kg/Ha): 0%; pest or weed control at 500 g/ha (rice [7]; 0.5 Kg/Ha): 97% |
| CCOC(=O)CN(c1c(C)cccc1C(=O)OC)S(=O)(=O)c1nc2nc(C)cc(C)n2n1 [Compound 266] | 40 | 0 | 75 | 0 | 0 | 85 | 75 | 10 | 0 | 80 | 90 | 0 | 0 | 2 | 13 | 75 | 70 | 80 | 0 | 30 | pest or weed control at 500 ppm (pigweed): 25%; pest or weed control at 500 ppm (wild oats): 0% |
| COC(=O)c1cccc(C)c1N(C)S(=O)(=O)c1nc2nc(C)cc(C)n2n1 [Compound 261] | 0 | 0 | 95 | 30 | 0 | 90 | 20 | 60 | 0 | 95 | 95 | 0 | 0 | 21 | 18 | 95 | 10 | 90 | 100 | 90 | pest or weed control at 500 ppm (pigweed): 65%; pest or weed control at 500 ppm (wild oats): 0% |
| Cc1cc(C)n2nc(S(=O)(=O)N(C)c3c(Cl)cccc3Cl)nc2n1 [Compound 260, 5,7,N-trimethyl-N-(2,6-dichlorophenyl)-1,2,4-triazolo[1,5-a]pyrimidine-2-sulfonamide] | 0 | 0 | 95 | 25 | 0 | 40 | 50 | 80 | 0 | 90 | 95 | 0 | 14 | 37 | 45 | 90 | 0 | 90 | 95 | 100 | pest or weed control at 500 ppm (pigweed): 45%; pest or weed control at 500 ppm (wild oats): 0% |
| C=CCN(c1c(Cl)cccc1Cl)S(=O)(=O)c1nc2nc(C)cc(C)n2n1 [Compound 263] | 85 | 0 | 100 | 70 | 0 | 80 | 40 | 50 | 0 | 95 | 80 | 0 | 0 | 87 | 11 | 40 | 90 | 0 | 100 | 100 | pest or weed control at 500 ppm (pigweed): 90%; pest or weed control at 500 ppm (wild oats): 0% |
| CSc1cccc(Cl)c1NS(=O)(=O)c1nc2nc(C)cc(C)n2n1 [Compound 69] | 0 | 80 | 90 | 80 | 0 | 80 | 80 | 90 | 90 | 90 | 90 | – | – | – | – | 85 | 80 | 40 | 95 | 100 | pest or weed control at 500 ppm (pigweed): 100%; pest or weed control at 500 ppm (wild oats): 0% |
| O=S(=O)(Nc1c(Cl)cccc1Cl)c1nc2ncc(Cl)cn2n1 [Compound 114] | – | – | – | – | – | – | – | – | – | – | – | – | – | – | – | – | – | – | – | – | pest or weed control at 250 g/ha (yellow nutsedge [5]; 0.25 Kg/Ha): 65%; pest or weed control at 1000 g/ha (yellow nutsedge [5]; 1.0 Kg/Ha): 90%; pest or weed control at 250 g/ha (barnyardgrass [6]; 0.25 Kg/Ha): 80%; pest or weed control at 1000 g/ha (barnyardgrass [6]; 1.0 Kg/Ha): 95%; pest or weed control at 250 g/ha (sprangletop; 0.25 Kg/Ha): 0%; pest or weed control at 1000 g/ha (sprangletop; 1.0 Kg/Ha): 0%; pest or weed control at 250 g/ha (rice [7]; 0.25 Kg/Ha): 0%; pest or weed control at 1000 g/ha (rice [7]; 1.0 Kg/Ha): 70% |
